Assay results: US9394284B2, “Compounds act at multiple prostaglandin receptors giving a general anti-inflammatory response” (Allergan, Inc., priority 2010, dated 2016)

Assays:
Type in all cases: cell-based
[1] = biological target: T1, human prostanoid EP2 receptor (Homo sapiens, UniProt P43116); assay: FLIPR Ca2+ signaling antagonist assay, EP2 receptor stable cell line; details: HEK-293 EBNA stable cell line; standard agonist PGE2; NA = inactive (no antagonism or Kb 10,000 nM); PAg, Ag not defined
T1 construct: expressed in transfected cells
T1 sequence (P43116 whole entry): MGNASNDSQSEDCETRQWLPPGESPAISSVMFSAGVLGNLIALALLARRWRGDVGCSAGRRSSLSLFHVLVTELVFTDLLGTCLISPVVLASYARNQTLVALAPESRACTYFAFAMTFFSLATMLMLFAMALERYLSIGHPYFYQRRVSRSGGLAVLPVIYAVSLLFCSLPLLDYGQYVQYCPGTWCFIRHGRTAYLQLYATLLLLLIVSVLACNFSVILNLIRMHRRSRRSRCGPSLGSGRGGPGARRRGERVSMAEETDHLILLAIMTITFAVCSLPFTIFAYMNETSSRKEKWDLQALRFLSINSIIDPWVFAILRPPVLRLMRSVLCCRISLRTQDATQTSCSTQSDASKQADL
Protocol: The above compounds were tested for PG antagonist activity as follows using human recombinant prostanoid receptor (DP1, EP1-4, FP, IP and TP) stable cell lines:
In order to measure the response of Gs and Gi coupled prostanoid receptors as a Ca^2+ signal, chimeric G protein cDNAs were used. Stable cell lines over-expressing human prostanoid DP1, EP1-4, FP, IP, and TP receptors were established as follows:
Briefly, human prostanoid DP1, EP2, and EP4 receptor cDNAs were co-transfected with chimeric Gqs cDNA containing a haemagglutanin (HA) epitope; human prostanoid EP3 receptors were co-transfected with chimeric Gqi-HA; human EP1, FP, IP, and TP receptor cDNAs were expressed with no exogenous G-proteins. Gqs and Gqi chimeric cDNAs (Molecular Devices, Sunnyvale, Calif., U.S.A.), as well as cDNAs of prostanoid receptors, were cloned into a pCEP4 vector with a hygromycin B selection marker. Transfection into HEK-293 EBNA (Epstein-Barr virus nuclear antigen) cells was achieved by the FuGENE 6 transfection Reagent (Roche Applied Science, Indianapolis, Ind., USA). Stable transfectants were selected according to hygromycin resistance. Because Gqs and Gqi contained an HA epitope, G-protein expression was detected by Western blotting analysis using anti-mouse HA monoclonal antibody and horseradish peroxidase (HRP)-conjugated secondary antibody, while functional expression of prostanoid receptors was detected by FLIPR screening (Matias et al., 2004). These stable cell lines were validated using previously published antagonists at 10 μM against serial dilutions of standard agonists by FLIPR functional assays for Ca^2+ Signaling (as described below).
Ca^2+ signaling studies were performed using a FLIPR TETRA system (Molecular Devices, Sunnyvale, Calif., USA) in the 384-format. This is a high-throughput instrument for cell-based assays to monitor Ca^2+ signaling associated with GPCRs and ion channels. Cells were seeded at a density of 5×10^4 cells/well in BioCoat poly-D-lysine coated, black wall, clear bottom 384-well plates (BD Biosciences, Franklin lakes, NJ, USA) and allowed to attach overnight in an incubator at 37° C. The cells were then washed twice with HBSS-HEPES buffer (Hanks' balanced salt solution without bicarbonate and phenol red, 20 mM HEPES, pH 7.4) using an ELx405 Select CW Microplate Washer (BioTek, Winooski, Vt., USA). After 60 min of dye-loading in the dark using the Ca^2+-sensitive dye Fluo-4AM (Invitrogen, Carlsbad, Calif., USA), at a final concentration of 2×10^−6M, the plates were washed 4 times with HBSS-HEPES buffer to remove excess dye and leaving 50 μl of buffer in each well. The plates were then placed in the FLIPR TETRA instrument and allowed to equilibrate at 37° C. AGN-211377 was added in a 25 μl volume to each well to give final concentrations of 0.1 μM, 0.3 μM, 1 μM, 3 μM, 10 μM, and 30 μM; or 0.067 μM, 0.1 μM, 0.2 μM, 0.3 μM, 0.67 μM, and 1 μM for cells over-expressing TP receptors. After 4.5 minutes, a 7-point serial dilution of the standard agonist for the corresponding receptor, in a 25 μl volume was injected at the final concentrations from 10^−11M to 10^−5M in 10-fold serial dilution increments for cells expressing human recombinant DP1, EP1, EP2, EP3, EP4, FP, and IP receptors. The dose range for the standard agonist for human recombinant TP receptors was from 10^−12 M to 10^−6 M. HBSS-HEPES buffer was used as the negative control for the standard agonists. Cells were excited with LED (light emitting diode) excitation at 470-495 nm and emission was measured through an emission filter at 515-575 nm. Assay plates were read for 3.5 minutes using the FLIPR^TETRA. The peak increase in fluorescence intensity was recorded for each well. On each plate, negative controls, dose response of positive controls, and co-treatments of antagonist-agonist for each dose were in triplicates.
Standard agonists were as follows: DP=BW 245C, EP1-EP4=PGE2, FP=17-phenyl-PGF2α, IP=Cicaprost, and TP=U-46619. […]

[2] = biological target: T2, human prostanoid FP receptor (Homo sapiens, UniProt P43088); assay: FLIPR Ca2+ signaling antagonist assay, FP receptor stable cell line; details: HEK-293 EBNA stable cell line; standard agonist 17-phenyl-PGF2α; NA = inactive (no antagonism or Kb 10,000 nM); PAg, Ag not defined
T2 construct: expressed in transfected cells
T2 sequence (P43088 whole entry): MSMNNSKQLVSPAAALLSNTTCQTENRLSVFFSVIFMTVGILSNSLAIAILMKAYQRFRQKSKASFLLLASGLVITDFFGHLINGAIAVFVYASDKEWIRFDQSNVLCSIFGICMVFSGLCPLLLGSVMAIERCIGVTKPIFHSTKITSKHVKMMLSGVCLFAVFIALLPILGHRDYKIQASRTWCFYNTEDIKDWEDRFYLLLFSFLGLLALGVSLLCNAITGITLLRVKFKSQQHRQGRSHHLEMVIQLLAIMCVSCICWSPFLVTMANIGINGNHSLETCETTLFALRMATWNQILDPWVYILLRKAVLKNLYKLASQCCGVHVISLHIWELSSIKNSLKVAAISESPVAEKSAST
Outline: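 Peak Fluo-4 fluorescence (ex 470–495, em 515–575 nm) was read for 3.5 min on FLIPR after agonist injection and expressed relative to 10^−6 M standard agonist. Cells were HEK-293 EBNA transfectants. Test compound was added 4.5 min beforehand at 0.1–30 μM, or 0.067–1 μM for TP.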

[3] = biological target: T3, human prostanoid TP receptor (Homo sapiens, UniProt P21731); assay: FLIPR Ca2+ signaling antagonist assay, TP receptor stable cell line; details: HEK-293 EBNA stable cell line; standard agonist U-46619; NA = inactive (no antagonism or Kb 10,000 nM); PAg, Ag not defined
T3 construct: expressed in transfected cells
T3 sequence (P21731 1-343): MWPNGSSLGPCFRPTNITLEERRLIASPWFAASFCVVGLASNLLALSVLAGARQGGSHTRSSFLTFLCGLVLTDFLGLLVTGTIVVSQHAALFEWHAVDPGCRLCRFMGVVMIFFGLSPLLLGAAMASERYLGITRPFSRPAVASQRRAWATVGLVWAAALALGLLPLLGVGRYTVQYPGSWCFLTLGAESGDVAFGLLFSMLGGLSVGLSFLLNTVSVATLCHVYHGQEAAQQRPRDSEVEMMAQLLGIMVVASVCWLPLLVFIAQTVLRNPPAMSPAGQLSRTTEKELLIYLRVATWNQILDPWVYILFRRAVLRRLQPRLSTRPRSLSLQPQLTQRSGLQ
Outline: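 HEK-293 EBNA cells stably expressing receptor (EP3 co-expressed with chimeric Gqi; EP1, IP, TP without exogenous G protein), Fluo-4 loaded, read on FLIPR at 37° C. Antagonist added 4.5 min before standard agonist (EP1/EP3 PGE2, IP cicaprost 10^−11–10^−5 M; TP U-46619 10^−12–10^−6 M); antagonist 0.1–30 μM, TP 0.067–1 μM; peak fluorescence relative to 10^−6 M agonist.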

[4] = biological target: T4, human prostanoid DP1 receptor (Homo sapiens, UniProt Q13258); assay: FLIPR Ca2+ signaling antagonist assay, DP1 receptor stable cell line; details: HEK-293 EBNA stable cell line; standard agonist BW 245C; NA = inactive (no antagonism or Kb 10,000 nM); PAg, Ag not defined
T4 construct: expressed in transfected cells
T4 sequence (Q13258 1-359): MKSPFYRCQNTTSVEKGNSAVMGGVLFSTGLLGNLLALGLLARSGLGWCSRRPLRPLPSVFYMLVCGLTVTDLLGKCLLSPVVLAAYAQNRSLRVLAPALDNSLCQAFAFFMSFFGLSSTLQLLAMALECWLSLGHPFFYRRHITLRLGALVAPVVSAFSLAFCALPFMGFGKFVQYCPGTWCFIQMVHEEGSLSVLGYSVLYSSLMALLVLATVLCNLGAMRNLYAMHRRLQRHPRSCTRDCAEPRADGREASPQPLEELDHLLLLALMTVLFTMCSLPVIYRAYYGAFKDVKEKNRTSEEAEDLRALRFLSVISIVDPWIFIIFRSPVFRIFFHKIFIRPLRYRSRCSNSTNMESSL
Outline: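 Functional antagonism measured by Ca2+ flux at 37 °C. Agonist ranges were 10^−11 to 10^−5 M, or 10^−12 to 10^−6 M for TP with U-46619; PGE2 for EP1/EP3, BW 245C for DP1. Compound spanned 0.1–30 μM except TP, 0.067–1 μM.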

Structure (SMILES) | Kb [1] [nM] | Kb [2] [nM] | Kb [3] [nM] | Kb [4] [nM] | TP (FLIPR) Kb [3] | FP (FLIPR) Kb [2]
CCC(CC)COc1ccc(Br)cc1Cn1nc(CCC(=O)NS(=O)(=O)C(F)(F)F)cc1C [Example 17, N-(3-{1-[5-Bromo-2-(2-ethyl-butoxy)-benzyl]-5-methyl-1H-pyrazol-3-yl}-propionyl)-C,C,C-trifluoro-methanesulfonamide] |  | 400 | < 1 | 200 |  | 
Cc1cc(CC(C)(C)C(=O)O)nn1Cc1cc(Br)ccc1OCC1CCCC1 [Example 71, 3-{1-[5-Bromo-2-(2-cyclopentylmethoxy)-benzyl]-5-methyl-1H-pyrazol-3-yl}-2,2-dimethyl-propionic acid] |  | 200 | 8 | 900 |  | 
CCC(CC)COc1ccc(Br)cc1Cn1nc(CCC(=O)O)cc1C(C)(C)C [Example 57, 3-{1-[5-Bromo-2-(2-ethyl-butoxy)-benzyl]-5-tert-butyl-1H-pyrazol-3-yl}-propionic acid] |  | 500 | 500 | 1600 |  | 
Cc1cc(CCC(=O)O)nn1Cc1cc(Cl)ccc1C#CC1CCCC1 [Example 73, 3-{1-[5-Chloro-2-cyclopentylethynyl-benzyl]-5-methyl-1H-pyrazol-3-yl}-propionic acid] |  | 50 | 2 | 700 |  | 
CCC(CC)COc1ccc(Br)cc1Cn1nc(CCC(=O)O)cc1C(C)C [Example 55, 3-{1-[5-Bromo-2-(2-ethyl-butoxy)-benzyl]-5-isopropyl-1H-pyrazol-3-yl}-propionic acid] |  | 110 | 250 | 540 |  | 
CCC(CC)COc1ccc(Br)cc1Cn1nc(CCC(=O)O)cc1C(F)(F)F [Example 58, 3-{1-[5-Bromo-2-(2-ethyl-butoxy)-benzyl]-5-trifluororomethyl-1H-pyrazol-3-yl}-propionic acid] |  |  | 150 | 60 |  | PAg
Cc1cc(CCC(=O)NS(=O)(=O)C(F)(F)F)nn1Cc1cc(Br)ccc1OCC(C)C [Example 19, N-(3-{1-[5-Bromo-2-isobutoxybenzyl]-5-methyl-1H-pyrazol-3-yl}-propionyl)-C,C,C-trifluoro-methanesulfonamide] |  | 220 | 1 | 200 |  | 
CCCc1cc(CCC(=O)O)nn1Cc1cc(Br)ccc1OCC(CC)CC [Example 56, 3-{1-[5-Bromo-2-(2-ethyl-butoxy)-benzyl]-5-propyl-1H-pyrazol-3-yl}-propionic acid] |  | 900 | 70 | 800 |  | 

Second part, led by results:

Kb [1] [nM] | Kb [2] [nM] | Kb [3] [nM] | Kb [4] [nM] | TP (FLIPR) Kb [3] | Structure (SMILES) | FP (FLIPR) Kb [2]
5500 | 800 | 30 | 800 |  | Cc1cc(CCC(=O)NS(=O)(=O)c2ccccc2)nn1Cc1cc(Cl)ccc1OCc1ccc(Cl)cc1 [Example 24, N-(3-[1-(5-Chloro-2-(4-chlorobenzyloxy)benzyl)-5-methyl-1H-pyrazol-3-yl]-propionyl)benzenesulfonamide] | 
 | 100 | 10 | 900 |  | Cc1cc(CCC(=O)O)nn1Cc1cc(Br)ccc1OCC1(C(F)(F)F)CCC1 [Example 13, 3-[1-(5-Bromo-2-(1-trifluoromethylcyclobutylmethoxy)-benzyl)-5-methyl-1H-pyrazol-3-yl]-propionic acid] | 
 | 90 | 1 | 110 |  | CCCC(C)COc1ccc(Br)cc1Cn1nc(CCC(=O)O)cc1C (stereo not shown) [Example 8, 3-[1-(5-Bromo-2-(2-methyl-pentyloxy)-benzyl)-5-methyl-1H-pyrazol-3-yl]-propionic acid] | 
 | 400 | < 1 | 1330 |  | Cc1cc(CCC(=O)NS(=O)(=O)CC(F)(F)F)nn1Cc1cc(Cl)ccc1OCc1ccc(Cl)cc1 [Example 25, 2,2,2-trifluoroethanesulfonic acid-(3-[1-(5-Chloro-2-(4-chlorobenzyloxy)benzyl)-5-methyl-1H-pyrazol-3-yl]-propionyl)amide] | 
 | 90 |  | 200 | PAg | Cc1cc(CCC(=O)NS(=O)(=O)C(F)(F)F)nn1Cc1cc(Cl)ccc1OCc1ccc(Cl)cc1Cl [Example 27, N-(3-[1-(5-Chloro-2-(2,4-dichlorobenzyloxy)benzyl)-5-methyl-1H-pyrazol-3-yl]-propionyl)C,C,C-trifluoromethanesulfonamide] | 
 | 1500 | 12 | 350 |  | Cc1cc(CCC(=O)NS(=O)(=O)C(F)(F)F)nn1Cc1cc(Cl)ccc1CCC1CCCC1 [Example 75] | 
 | 400 | 10 | 180 |  | CCCCC(CC)COc1ccc(Br)cc1Cn1nc(CCC(=O)O)cc1C (stereo not shown) [Example 6, 3-[1-(5-Bromo-2-(2-ethyl-hexyloxy)-benzyl)-5-methyl-1H-pyrazol-3-yl]-propionic acid] | 
 | 140 |  | 500 | PAg | Cc1cc(CCC(=O)O)nn1Cc1cc(Cl)ccc1OCc1ccc(Cl)cc1Cl [Example 26, 3-[1-(5-Chloro-2-(2,4-dichlorobenzyloxy)benzyl)-5-methyl-1H-pyrazol-3-yl]-propionic acid] | 
